“Also recorded” adds a separate entry of the source.
Legend:
Type in all cases: cell-based
[1] = system: PC12 cells or Schwann cells; assay: Inhibition of apoptosis of PC12 cells or Schwann cells by synthetic peptides
[2] = system: PC12^TrkA cells; assay: Survival of PC12^TrkA cells in serum-free medium (MTT, DAPI); conditions: peptides 10 μM, PDNF 500 ng/ml, NGF 30 ng/ml; 48 hours to 5 days
Description: (§1) PC12^nnr5 and PC12^TrkA cells were grown in RPMI with 10% FCS and 5% horse serum as described earlier (Green et al., J. Cell Biol. 102:830-843 (1986); Chuenkova and Pereira, Mol. Biol. Cell 11: 1487-1498 (2000)). Two approaches were used to study neurite extension: 1) Plating cells (1×10^5 cells/ml) on plastic wells (LABTECH 16-well slides, Nalge Nunc International, Naperville, Ill.) coated with synthetic peptides (100 μg/ml water, 4° C., overnight) or rat tail collagen (1 mg/ml PBS, 4° C., overnight). 2) Adding peptides in solution to cells plated on uncoated substratum. Cells were grown in 1% FCS-containing RPMI for 72 hours, and reacted with 0.5 mg/ml MTT (3-[4,5-dimethylthiazol-2-yl]-2,5-diphenyltetrazolium bromide) (SIGMA, St. Louis, Mo.) in serum-free medium for 1 hour at 37° C. Light microscopy was used to visualize viable cells (i.e., containing reduced insoluble formazan) with or without extended neurites (>5 μm in length). Cell viability was also determined using the CELLTITER 96 assay (Promega, Madison, Wis.) as follows: Cells, plated at 2×10^5/ml, were treated with peptides in serum-free medium for different times and exposed to CELLTITER 96 Aqueous One Solution for 1 hour at 37° C. 2) Apoptotic cells were identified by staining with DAPI (250 ng/ml) (SIGMA) 48 hours after cells were exposed to serum-free medium with or without additives in solution, as described earlier (Chuenkova and Pereira, Mol. Biol. Cell 11:1487-1498 (2000)). […]

[3] = system: Erk1/2; assay: Erk1/2 phosphorylation in PC12 cells; conditions: 5 minutes; control peptides 10 μM
Description: Activation state of TrkA, Erk1/2 and Akt kinases and transcription factor CREB was analyzed by assessing phosphorylation by Western blot with appropriate phospho-specific antibodies. For this, cells were plated in complete medium at a density of 3×10^5 cells/ml overnight on 6-well plates (BECTON DICKINSON LABWARE, Franklin Lakes, N.J.). The medium was changed to serum-free medium and the cells cultured for an additional 24 hours to reduce background phosphorylation. […] Antibody reaction was visualized by horseradish peroxidase (HRP)-conjugated secondary antibody and enhanced chemiluminescence kit (ECL). Some blots were stripped in appropriate buffer (50 mM Tris HCl, pH 7.8, 2% SDS, 1% β-mercaptoethanol) at 50° C. for 60 minutes and re-probed with p42/44MAPK, Akt or CREB antibody to ensure equal loading of proteins. For immunoprecipitation experiments, cell lysates were pre-adsorbed on protein G-Sepharose for 1 hour at 4° C. and after brief centrifugation supernatants were incubated with anti-TrkA antibody for 24 hours at 4° C. with gentle rocking. Formed immunocomplexes were captured on protein G-Sepharose, eluted with SDS-PAGE sample buffer and analyzed by immunoblotting with antibody against phospho-TrkA receptor.

[4] = system: PC12^TrkA cells; assay: Neurite extension of PC12^TrkA cells; conditions: coated substratum or in medium (10 μM), 1% FCS
Description: as §1, with “C.” for “C. 2) Apoptotic cells were identified by staining with DAPI (250 ng/ml) (SIGMA) 48 hours after cells were exposed to serum-free medium with or without additives in solution, as described earlier (Chuenkova and Pereira, Mol. Biol. Cell 11:1487-1498 (2000)).”

[5] = system: PC12 cells; conditions: serum-free RPMI/0.2% BSA, collagen coated dishes, 16-17 hours
[6] = system: neuroblastoma N18 cells; assay: Neurite outgrowth assay in N18 cells; conditions: soluble or immobilized on plastic (500 μg/ml coating), 17 hours
Description: 96-well microtiter plates were coated overnight at 4° C. with the TS or peptides or fragments thereof, or with control proteins laminin (Ln) or bovine serum albumin (BSA) at 500 μg/ml. After removing the compounds, the plates were further incubated with 1% BSA for 1 hour at room temperature and immediately used as substratum for PC12 or N18 (Prasad, K., Biol. Rev. Camb. Philos. Soc., 66:431-451 (1991)) cells in serum-free RPMI/0.2% BSA. Neurite outgrowth was measured using a phase-contrast microscope 17 hours later.

Substance	suppression of apoptosis of PC12 cells or Schwann cells [1]	survival of PC12^TrkA cells in serum-free medium [2]	Erk1/2 phosphorylation in PC12 cells [3]	neurite extension / differentiation of PC12^TrkA cells [4]	neurite outgrowth in PC12 cells [5]	neurite outgrowth in N18 cells [6]
DSSAHGTPSTPA [peptide TR]	did not inhibit apoptosis	inactive; also recorded: did not significantly promoted cell survival; also recorded: did not support survival and neurite extension	did not activate Erk	did not spread and extend neurites; also recorded: did not support survival and neurite extension	did not induce neurite outgrowth; also recorded: did not promote neurite outgrowth	
laminin [reference compound]						induced
